# Data as given in ChEMBL document CHEMBL1126625, “7-Azetidinylquinolones as antibacterial agents. Synthesis and structure-activity relationships” (J Med Chem, 1993).
# Experiments:
# Format in all cases: functional
# Klebsiella pneumoniae = assay: Minimum inhibitory concentration (MIC)preventing growth of Klebsiella pneumoniae
# [1] = test system: Staphylococcus epidermidis; assay: Minimum inhibitory concentration (MIC) preventing growth of Staphylococcus epidermidis
# Staphylococcus aureus = assay: Minimum inhibitory concentration (MIC) preventing growth of […]
# Proteus vulgaris = assay: Minimum inhibitory concentration (MIC) preventing growth of Proteus vulgaris
# Enterobacter cloacae = assay: Minimum inhibitory concentration (MIC)preventing growth of Enterobacter cloacae
# Bacillus cereus = assay: Minimum inhibitory concentration (MIC) preventing growth of Bacillus cereus
# Morganella morganii = assay: Minimum inhibitory concentration (MIC) preventing growth of Morganella morganii
# Pseudomonas aeruginosa = assay: Minimum inhibitory concentration (MIC)preventing growth of Pseudomonas aeruginosa
# Escherichia coli = assay: Minimum inhibitory concentration (MIC)preventing growth of Escherichia coli
# Enterococcus faecalis = assay: Minimum inhibitory concentration (MIC) preventing growth of Streptococcus faecalis ATCC 10541
# Bacillus subtilis = assay: Minimum inhibitory concentration (MIC) preventing growth of Bacillus subtilis
Structure (SMILES),MIC (Klebsiella pneumoniae) [µg/mL],MIC [1] [µg/mL],MIC (Staphylococcus aureus) [µg/mL],MIC (Proteus vulgaris) [µg/mL],MIC (Enterobacter cloacae) [µg/mL],MIC (Bacillus cereus) [µg/mL],MIC (Morganella morganii) [µg/mL],MIC (Pseudomonas aeruginosa) [µg/mL],MIC (Escherichia coli) [µg/mL],MIC (Enterococcus faecalis) [µg/mL],MIC (Bacillus subtilis) [µg/mL]
CCn1cc(C(=O)O)c(=O)c2cc(F)c(N3CC(C)(N)C3)nc21,0.12,1,1,1,0.25,1,0.25,2,0.25,2,0.25
CC1(N)CN(c2c(F)cc3c(=O)c(C(=O)O)cn(CCF)c3c2F)C1,1,1,1,1,1,1,1,4,1,4,0.25
CCC1(O)CN(c2cc3c(cc2F)c(=O)c(C(=O)O)cn3C2CC2)C1,0.12,0.12,0.12,0.25,0.25,1,0.5,2,0.12,1,0.015
CC1(CN)CN(c2c(F)cc3c(=O)c(C(=O)O)cn(C4CC4)c3c2F)C1,0.25,0.5,1,1,0.5,0.5,3,4,0.5,2,0.25
O=C(O)c1cn(C2CC2)c2c(F)c(N3CCC3)c(F)cc2c1=O,0.25,0.12,0.25,0.25,0.25,0.25,0.25,2,0.25,1,0.015
CCNCC1(C)CN(c2cc3c(cc2F)c(=O)c(C(=O)O)cn3C2CC2)C1,0.5,0.5,0.25,0.25,0.25,0.12,0.5,4,0.12,1,0.12
NC1CN(c2cc3c(cc2F)c(=O)c2c(=O)[nH]sc2n3C2CC2)C1,0.03,0.06,0.06,0.12,0.03,0.06,0.015,0.25,0.007,0.12,0.03
CC1(N)CN(c2c(F)cc3c(=O)c4c(=O)[nH]sc4n(C4CC4)c3c2F)C1,0.06,0.06,0.12,0.12,0.06,0.12,0.06,0.5,0.06,0.5,0.03
O=C(O)c1cn(C2CC2)c2c(F)c(N3CC(C(=O)O)C3)c(F)cc2c1=O,> 16,> 16,> 16,> 16,> 16,> 16,> 16,> 16,> 16,> 16,> 16
CN(C)C1CN(c2cc3c(cc2F)c(=O)c2c(=O)[nH]sc2n3C2CC2)C1,0.06,0.06,0.06,0.06,0.06,0.12,0.06,1,0.03,0.5,0.03
N#CC1CN(c2c(F)cc3c(=O)c(C(=O)O)cn(C4CC4)c3c2F)C1,0.5,0.5,1,1,1,0.5,1,8,1,4,0.06
CC1(N)CN(c2c(F)cc3c(=O)c(C(=O)O)cn(-c4ccc(F)cc4F)c3c2F)C1,0.5,0.5,0.25,0.5,0.25,0.5,0.5,2,0.25,0.25,0.25
CC1(N)CN(c2nc3c(cc2F)c(=O)c(C(=O)O)cn3CCF)C1,0.06,0.5,0.5,1,0.12,0.5,0.12,2,0.06,2,0.12
CC1(N)CN(c2cc3c(cc2F)c(=O)c(C(=O)O)cn3CCF)C1,0.5,1,1,1,1,1,0.5,4,0.5,2,0.25
CCNCC1(C)CN(c2c(F)cc3c(=O)c(C(=O)O)cn(C4CC4)c3c2F)C1,0.25,0.25,0.25,0.25,0.25,0.25,0.25,2,0.25,1,0.12
CCC1(O)CN(c2c(F)cc3c(=O)c(C(=O)O)cn(C4CC4)c3c2F)C1,0.12,0.25,0.5,0.25,0.5,0.5,0.5,2,0.25,1,0.06
CNC1CN(c2nc3c(cc2F)c(=O)c(C(=O)O)cn3C2CC2)C1,0.03,0.12,0.25,0.25,0.03,0.12,0.06,0.5,0.03,0.5,0.06
CC1(CN)CN(c2cc3c(cc2F)c(=O)c(C(=O)O)cn3C2CC2)C1,0.25,0.25,0.25,0.12,0.25,0.12,0.12,1,0.12,0.5,0.06
CCNC1CN(c2cc3c(cc2F)c(=O)c2c(=O)[nH]sc2n3C2CC2)C1,0.03,0.06,0.06,0.12,0.03,0.12,0.06,0.5,0.03,0.5,0.03

# Second part, the compound after the results:
MIC (Klebsiella pneumoniae) [µg/mL],MIC [1] [µg/mL],MIC (Staphylococcus aureus) [µg/mL],MIC (Proteus vulgaris) [µg/mL],MIC (Enterobacter cloacae) [µg/mL],MIC (Bacillus cereus) [µg/mL],MIC (Morganella morganii) [µg/mL],MIC (Pseudomonas aeruginosa) [µg/mL],MIC (Escherichia coli) [µg/mL],MIC (Enterococcus faecalis) [µg/mL],MIC (Bacillus subtilis) [µg/mL],Structure (SMILES)
0.015,0.12,0.12,0.25,0.12,0.06,0.25,2,0.06,1,0.015,CNC1(C)CN(c2nc3c(cc2F)c(=O)c(C(=O)O)cn3C(C)(C)C)C1
0.03,0.25,0.25,0.5,0.06,0.25,0.06,1,0.03,1,0.06,CCn1cc(C(=O)O)c(=O)c2cc(F)c(N3CC(C)(N)C3)c(Cl)c21
0.015,0.25,0.25,0.5,0.25,0.25,0.5,4,0.25,2,0.06,CC(=O)CN(C)C1(C)CN(c2cc3c(cc2F)c(=O)c(C(=O)O)cn3C2CC2)C1
0.015,0.12,0.06,0.06,0.015,0.015,0.015,0.25,0.015,0.25,0.015,Nc1c(F)c(N2CC(N)C2)c(F)c2c1c(=O)c(C(=O)O)cn2C1CC1
0.015,0.12,0.25,1,0.015,0.5,0.015,1,0.06,1,0.06,CC1(N)CN(c2c(F)cc3c(=O)c(C(=O)O)cn(CCF)c3c2Cl)C1
0.015,0.06,0.06,0.06,0.12,0.06,0.25,2,0.12,2,0.015,O=C(O)c1cn(C2CC2)c2cc(N3CCC3)c(F)cc2c1=O
0.015,0.06,0.06,0.12,0.12,0.015,0.12,2,0.06,2,0.015,Nc1c(F)c(N2CC(O)C2)c(F)c2c1c(=O)c(C(=O)O)cn2C1CC1
0.015,0.03,0.06,0.06,0.015,0.03,0.015,0.25,0.015,0.12,0.015,CC1(N)CN(c2cc3c(cc2F)c(=O)c2c(=O)[nH]sc2n3C2CC2)C1
0.015,0.12,0.12,0.12,0.12,0.12,0.25,2,0.12,2,0.015,CC(=O)OC1CN(c2c(F)cc3c(=O)c(C(=O)O)cn(C4CC4)c3c2F)C1
